Assay results from ChEMBL document CHEMBL3414538, “Synthesis, biological evaluation and molecular modeling studies of the PPARβ/δ antagonist CC618” (Eur J Med Chem, 2015).
Active and inactive are the calls of the source. No cut-off for these calls is given here.

Legend:
[1] = biological target: T1, Peroxisome proliferator-activated receptor delta (Homo sapiens, UniProt Q03181); experiment: Antagonist activity against pSG5-Gal4-tagged human PPAR-beta/delta ligand binding domain expressed in COS1 cells assessed as inhibition of GW501516-induced receptor activation incubated for 19 hrs by pGL3-5XUAS-SV40 luciferase reporter gene assay; assay type: cell-based, COS-1
T1 sequence (Q03181 whole entry): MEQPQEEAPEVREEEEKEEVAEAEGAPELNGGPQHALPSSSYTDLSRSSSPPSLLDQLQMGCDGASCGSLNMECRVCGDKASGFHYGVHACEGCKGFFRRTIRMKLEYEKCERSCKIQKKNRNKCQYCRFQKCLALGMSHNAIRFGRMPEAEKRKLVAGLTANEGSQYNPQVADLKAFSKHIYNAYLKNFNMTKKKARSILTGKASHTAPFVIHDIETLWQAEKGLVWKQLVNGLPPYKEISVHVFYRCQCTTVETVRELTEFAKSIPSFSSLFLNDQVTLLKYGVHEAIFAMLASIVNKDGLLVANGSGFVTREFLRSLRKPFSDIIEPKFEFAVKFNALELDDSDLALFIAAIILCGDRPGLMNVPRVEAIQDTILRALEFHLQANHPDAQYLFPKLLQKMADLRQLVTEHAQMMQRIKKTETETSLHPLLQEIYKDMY

[2] = biological target: T1, Peroxisome proliferator-activated receptor delta; experiment: Agonist activity at pSG5-Gal4-tagged human PPAR-beta/delta ligand binding domain expressed in COS1 cells assessed as receptor activation incubated for 19 hrs by pGL3-5XUAS-SV40 luciferase reporter gene assay; assay type: cell-based; details: cos-1
[3] = biological target: T2, Peroxisome proliferator-activated receptor alpha (Homo sapiens) (UniProt Q07869); experiment: Antagonist activity against pSG5-Gal4-tagged human PPAR-alpha ligand binding domain expressed in COS1 cells assessed as inhibition of bezafibrate-induced receptor activation at 1 nM to 100000 nM incubated for 19 hrs by pGL3-5XUAS-SV40 luciferase reporter gene assay; assay type: cell-based; details: COS-1
T2 sequence (whole entry): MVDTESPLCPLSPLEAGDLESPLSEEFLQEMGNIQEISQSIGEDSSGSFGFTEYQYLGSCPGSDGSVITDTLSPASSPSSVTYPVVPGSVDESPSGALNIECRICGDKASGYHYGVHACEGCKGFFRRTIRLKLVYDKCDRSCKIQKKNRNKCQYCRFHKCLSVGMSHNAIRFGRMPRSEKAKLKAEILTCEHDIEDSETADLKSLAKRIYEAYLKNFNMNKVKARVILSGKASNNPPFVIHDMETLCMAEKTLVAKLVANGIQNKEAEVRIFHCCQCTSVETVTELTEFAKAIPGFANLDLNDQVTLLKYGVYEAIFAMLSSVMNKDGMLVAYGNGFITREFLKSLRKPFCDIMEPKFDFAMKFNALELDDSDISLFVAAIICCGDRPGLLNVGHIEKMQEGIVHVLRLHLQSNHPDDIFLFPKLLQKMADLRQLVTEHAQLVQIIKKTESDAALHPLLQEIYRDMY

[4] = biological target: T3, Peroxisome proliferator-activated receptor gamma (Homo sapiens) (UniProt P37231); experiment: Antagonist activity against pSG5-Gal4-tagged human PPAR-gamma ligand binding domain expressed in COS1 cells assessed as inhibition of rosiglitazone-induced receptor activation at 20 nM to 20000 nM incubated for 19 hrs by pGL3-5XUAS-SV40 luciferase reporter gene assay; assay type: cell-based; details: COS-1
T3 sequence (whole entry): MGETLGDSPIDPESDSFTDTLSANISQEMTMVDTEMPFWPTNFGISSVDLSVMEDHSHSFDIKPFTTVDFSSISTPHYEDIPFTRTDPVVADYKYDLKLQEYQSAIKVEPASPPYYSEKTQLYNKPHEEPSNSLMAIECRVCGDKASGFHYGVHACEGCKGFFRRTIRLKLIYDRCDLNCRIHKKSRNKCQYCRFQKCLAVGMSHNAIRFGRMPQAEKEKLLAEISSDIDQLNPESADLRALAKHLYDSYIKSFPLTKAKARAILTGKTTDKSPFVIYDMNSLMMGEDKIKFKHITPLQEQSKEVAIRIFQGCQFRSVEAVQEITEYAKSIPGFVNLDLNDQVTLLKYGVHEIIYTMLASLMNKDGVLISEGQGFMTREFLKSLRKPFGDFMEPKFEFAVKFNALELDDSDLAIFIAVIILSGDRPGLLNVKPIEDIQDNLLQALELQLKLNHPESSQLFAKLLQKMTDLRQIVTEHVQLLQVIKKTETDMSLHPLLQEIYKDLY

Row | Compound | IC50 ([1]; read-out: IC50) [µM] | EC50 [2] | inhibition [3] | inhibition [4] | IC50 ([1]; cos-1)
1 | O=C(NCCS(=O)(=O)c1ccc(C(F)(F)F)cn1)c1ccc(Cl)cc1 | 5 | Not Active | – | – | –
2 | Cc1nc(-c2ccc(C(F)(F)F)cc2)sc1C(=O)NCCS(=O)(=O)c1ccc(C(F)(F)F)cn1 | 10 | Not Active | inactive | inactive | –
3 | Cc1nc(-c2ccc(C(F)(F)F)cc2)sc1C(=O)NCCS(=O)(=O)c1ccccn1 | – | – | – | – | Not Active
